Measurements published in the NIST ThermoML archive (doi:10.1016/j.jct.2016.07.020).

Assay: mn = molality of the nth substance listed, in mol/kg
Details: 101.3 kPa, Liquid, Capillary tube (Ostwald / Ubbelohde) method

CO[C@H]1O[C@H](CO)[C@@H](O)[C@H](O)[C@H]1O [methyl-α-D-glucopyranoside] + O
viscosity [mPa·s]
Details | m1 = 0.0397 | m1 = 0.06 | m1 = 0.08 | m1 = 0.0999 | m1 = 0.1191 | m1 = 0.1402 | m1 = 0.1599 | m1 = 0.1801
288.15 K | 1.159 | 1.172 | 1.183 | 1.194 | 1.206 | 1.218 | 1.23 | 1.241
298.15 K | 0.906 | 0.916 | 0.925 | 0.931 | 0.94 | 0.948 | 0.956 | 0.964
308.15 K | 0.732 | 0.739 | 0.745 | 0.751 | 0.757 | 0.764 | 0.77 | 0.777
318.15 K | 0.606 | 0.611 | 0.616 | 0.621 | 0.625 | 0.631 | 0.636 | 0.64

OC[C@@H](O)[C@H](O)[C@@H](O)CO [xylitol] + O
viscosity [mPa·s]
Details | m1 = 0.0399 | m1 = 0.0599 | m1 = 0.08 | m1 = 0.0999 | m1 = 0.1196 | m1 = 0.1396 | m1 = 0.1593 | m1 = 0.1801
288.15 K | 1.16 | 1.17 | 1.179 | 1.188 | 1.197 | 1.206 | 1.214 | 1.223
298.15 K | 0.905 | 0.913 | 0.919 | 0.926 | 0.933 | 0.939 | 0.947 | 0.954
308.15 K | 0.73 | 0.736 | 0.742 | 0.746 | 0.751 | 0.757 | 0.762 | 0.766
318.15 K | 0.604 | 0.608 | 0.612 | 0.616 | 0.621 | 0.625 | 0.63 | 0.634

O=C1O[C@H]([C@@H](O)CO)C(O)=C1O [L-ascorbic acid] + O
viscosity [mPa·s]
Details | 288.15 K | 298.15 K | 308.15 K | 318.15 K
m1 = 0.05 | 1.163 | 0.91 | 0.732 | 0.605
m1 = 0.15 | 1.21 | 0.944 | 0.759 | 0.625
m1 = 0.25 | 1.257 | 0.979 | 0.787 | 0.646
m1 = 0.35 | 1.305 | 1.017 | 0.813 | 0.669

OC[C@@H](O)[C@H](O)[C@H](O)[C@@H](O)CO [dulcitol] + O
viscosity [mPa·s]
Details | m1 = 0.04 | m1 = 0.0603 | m1 = 0.0797 | m1 = 0.1002 | m1 = 0.1196 | m1 = 0.14 | m1 = 0.1597 | m1 = 0.1795
288.15 K | 1.161 | 1.172 | 1.183 | 1.191 | 1.202 | 1.213 | 1.221 | 1.229
298.15 K | 0.904 | 0.912 | 0.919 | 0.926 | 0.933 | 0.939 | 0.948 | 0.953
308.15 K | 0.73 | 0.736 | 0.741 | 0.746 | 0.751 | 0.756 | 0.761 | 0.766
318.15 K | 0.602 | 0.607 | 0.61 | 0.614 | 0.617 | 0.623 | 0.626 | 0.628

O=C[C@H](O)[C@@H](O)[C@H](O)[C@H](O)CO [D-glucose] + O
viscosity [mPa·s]
Details | m1 = 0.04 | m1 = 0.0599 | m1 = 0.0797 | m1 = 0.0999 | m1 = 0.1197 | m1 = 0.14 | m1 = 0.1598 | m1 = 0.1797
288.15 K | 1.161 | – | 1.181 | 1.193 | 1.204 | 1.216 | 1.227 | 1.241
298.15 K | 0.907 | 0.915 | 0.924 | 0.932 | 0.94 | 0.947 | 0.954 | 0.961
308.15 K | 0.733 | 0.737 | 0.744 | 0.751 | 0.756 | 0.762 | 0.768 | 0.774
318.15 K | 0.606 | 0.61 | 0.614 | 0.62 | 0.624 | 0.629 | 0.636 | 0.64

OC[C@H]1OC(O)C[C@@H](O)[C@@H]1O (stereo partly drawn) [2-deoxy-D-glucose] + O
viscosity [mPa·s]
Details | m1 = 0.04 | m1 = 0.06 | m1 = 0.0797 | m1 = 0.1001 | m1 = 0.1201 | m1 = 0.1399
288.15 K | 1.161 | 1.171 | 1.18 | 1.191 | 1.201 | 1.213
298.15 K | 0.907 | 0.913 | 0.919 | 0.928 | 0.936 | 0.945
308.15 K | 0.73 | 0.736 | 0.742 | 0.749 | 0.754 | 0.761
318.15 K | 0.605 | 0.609 | 0.615 | 0.619 | 0.624 | 0.629

O=C[C@H](O)[C@@H](O)[C@H](O)CO [D-xylose] + O
viscosity [mPa·s]
Details | m1 = 0.0399 | m1 = 0.0601 | m1 = 0.0797 | m1 = 0.0993 | m1 = 0.1195 | m1 = 0.1391 | m1 = 0.1583 | m1 = 0.1783
288.15 K | 1.155 | 1.163 | 1.173 | 1.181 | 1.188 | 1.197 | 1.206 | 1.214
298.15 K | 0.901 | 0.909 | 0.914 | 0.92 | 0.927 | 0.932 | 0.937 | 0.944
308.15 K | 0.727 | 0.733 | 0.739 | 0.742 | 0.747 | 0.751 | 0.756 | 0.762
318.15 K | 0.603 | 0.607 | 0.61 | 0.614 | 0.618 | 0.623 | 0.626 | 0.63

O=C[C@H](O)[C@@H](O)[C@@H](O)[C@H](O)CO [(+)-galactose] + O
viscosity [mPa·s]
Details | m1 = 0.0402 | m1 = 0.0601 | m1 = 0.0792 | m1 = 0.0992 | m1 = 0.1199 | m1 = 0.139 | m1 = 0.1594 | m1 = 0.1793
288.15 K | 1.158 | 1.168 | 1.179 | 1.19 | 1.203 | 1.214 | 1.224 | 1.237
298.15 K | 0.905 | 0.913 | 0.92 | 0.929 | 0.938 | 0.945 | 0.953 | 0.961
308.15 K | – | 0.737 | 0.743 | 0.749 | 0.755 | 0.76 | 0.766 | 0.773
318.15 K | 0.606 | 0.611 | 0.615 | 0.618 | 0.624 | 0.626 | 0.631 | 0.635
